Laboratory results from patent US10077238B2, “Small molecule LFA-1 inhibitors” (ALLOCYTE PHARMACEUTICALS AG, priority 2014, dated 2018).
“And” between values parts separate entries of the source, which are not always exact repeats. Equal values may be shown once.

The compounds below were run against T1, LFA-1 (Homo sapiens, UniProt P20701) (assay: V well cell adhesion assay, LFA-1-mediated Jurkat cell binding to ICAM-1 (LFA-1 adhesion)). Settings: Jurkat cells on ICAM-1/Fc; mean ±SD of ≥3 independent experiments in triplicates or single experiments in triplicates.
T1 construct: endogenous in cells; host or cells: Jurkat cells
T1 sequence (P20701 26-1170): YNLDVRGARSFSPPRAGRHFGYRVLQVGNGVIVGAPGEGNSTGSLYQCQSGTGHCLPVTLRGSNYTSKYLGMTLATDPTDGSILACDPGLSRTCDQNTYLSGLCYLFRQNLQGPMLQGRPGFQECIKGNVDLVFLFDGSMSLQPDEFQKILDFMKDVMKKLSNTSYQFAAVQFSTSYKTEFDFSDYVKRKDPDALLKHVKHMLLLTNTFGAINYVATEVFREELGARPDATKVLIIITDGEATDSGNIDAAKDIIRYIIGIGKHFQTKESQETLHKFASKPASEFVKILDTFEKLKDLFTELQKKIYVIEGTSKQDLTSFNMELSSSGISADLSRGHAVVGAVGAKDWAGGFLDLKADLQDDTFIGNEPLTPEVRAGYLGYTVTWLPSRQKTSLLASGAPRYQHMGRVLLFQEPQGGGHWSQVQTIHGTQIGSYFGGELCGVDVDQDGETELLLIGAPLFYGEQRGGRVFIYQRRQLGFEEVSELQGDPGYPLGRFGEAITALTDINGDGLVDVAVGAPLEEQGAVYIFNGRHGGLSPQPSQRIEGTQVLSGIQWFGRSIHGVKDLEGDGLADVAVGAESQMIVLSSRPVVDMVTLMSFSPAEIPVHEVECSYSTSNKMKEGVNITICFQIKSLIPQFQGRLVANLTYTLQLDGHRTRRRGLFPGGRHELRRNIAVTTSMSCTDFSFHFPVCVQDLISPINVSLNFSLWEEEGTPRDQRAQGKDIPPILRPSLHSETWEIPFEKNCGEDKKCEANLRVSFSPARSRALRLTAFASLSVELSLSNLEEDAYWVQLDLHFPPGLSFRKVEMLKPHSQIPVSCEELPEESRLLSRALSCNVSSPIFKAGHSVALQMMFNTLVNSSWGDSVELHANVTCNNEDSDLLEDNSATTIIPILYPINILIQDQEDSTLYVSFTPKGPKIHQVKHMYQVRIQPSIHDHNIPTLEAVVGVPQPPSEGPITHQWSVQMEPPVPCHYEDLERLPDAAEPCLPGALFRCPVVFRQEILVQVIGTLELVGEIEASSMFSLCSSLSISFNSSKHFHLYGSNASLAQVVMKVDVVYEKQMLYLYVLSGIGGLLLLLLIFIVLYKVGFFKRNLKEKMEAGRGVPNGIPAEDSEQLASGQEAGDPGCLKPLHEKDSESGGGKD
T1 sequence (P05107 23-769 partner): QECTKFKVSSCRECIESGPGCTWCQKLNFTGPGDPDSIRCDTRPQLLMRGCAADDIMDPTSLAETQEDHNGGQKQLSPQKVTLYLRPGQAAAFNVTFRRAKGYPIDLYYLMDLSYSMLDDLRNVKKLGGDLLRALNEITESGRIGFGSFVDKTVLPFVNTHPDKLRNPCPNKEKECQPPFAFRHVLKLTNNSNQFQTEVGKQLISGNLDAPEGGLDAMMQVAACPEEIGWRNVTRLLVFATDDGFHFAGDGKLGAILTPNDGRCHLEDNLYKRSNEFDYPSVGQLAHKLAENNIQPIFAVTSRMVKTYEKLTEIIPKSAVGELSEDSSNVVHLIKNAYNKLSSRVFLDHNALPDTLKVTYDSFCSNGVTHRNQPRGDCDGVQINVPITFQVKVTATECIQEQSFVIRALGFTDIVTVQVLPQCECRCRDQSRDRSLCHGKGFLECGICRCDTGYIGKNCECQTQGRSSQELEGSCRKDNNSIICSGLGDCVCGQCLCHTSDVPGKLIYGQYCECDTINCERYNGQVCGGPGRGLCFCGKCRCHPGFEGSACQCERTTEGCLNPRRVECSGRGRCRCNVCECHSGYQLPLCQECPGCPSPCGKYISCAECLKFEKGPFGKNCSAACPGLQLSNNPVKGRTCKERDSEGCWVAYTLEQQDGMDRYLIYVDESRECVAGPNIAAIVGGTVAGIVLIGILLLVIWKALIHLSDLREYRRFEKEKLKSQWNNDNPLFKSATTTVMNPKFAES
Assay type: cell-based
Protocol: Cell-Based Assay to Determine the Effect of the Compounds on LFA-1-Mediated Cell Adhesion (LFA-1 Adhesion)
Purpose of the Assay: The V well cell adhesion assay measures the ability of the compounds to interfere with LFA-1-mediated binding to ICAM-1 at cellular level. The assay has been successfully used in the past to identify and characterize small molecules LFA-1 inhibitors.
Experimental Protocol: The adhesion assay was performed in Vbottom 96-well plates as described previously [Weitz-Schmidt 2012]. Briefly, the plates were coated with anti-human IgG mAb diluted in coating buffer (20 mM Tris containing 150 mM NaCl, pH 8) (1 μg/mL) and incubated overnight at 4° C. The plates were flicked out and blocked with blocking buffer (50 mM Tris base, 150 mM NaCl, 1.5% BSA (w/v), pH 7.2) at 37° C. for 90 min. Then human recombinant ICAM-1/Fc (R&D Systems) diluted in coating buffer (0.3 μg/mL) was added to each well. The plates were incubated at 37° C. for 90 min and washed with binding buffer (50 mM Tris base, 150 mM NaCl, 1.5% BSA (w/v), 2 mM MgCl2, 2 mM MnCl2, 5 mM D-glucose monohydrate, pH 7.2-7.4) to remove unbound ligand.
Jurkat cells were cultured under standard conditions as recommended by the American Type Culture collection (ATCC). The cells were fluorescently labelled with BCECF-AM in PBS (1 μg/mL) at 37° C. for 20 min in the dark, centrifuged and washed with PBS. The test compounds were dissolved in DMSO at 10 mM and serially pre-diluted in DMSO (100%) to avoid precipitation, before performing final dilution steps in binding buffer.
The labelled Jurkat cells were re-suspended in binding buffer and test compounds or solvent control were added. The DMSO concentration was kept constant in all samples (1% DMSO as final assay concentration). After 40 min at 37° C. (LFA-1 activation and compound pre-incubation step) the cell suspension (3×10^5 cells/mL in binding buffer) was pipetted up and down and transferred to the ligand-coated microtiter V well plates (30 000 cells/well). The plates were centrifuged for 4 min at room temperature (rt) at 1000 rpm (Centrifuge Eppendorf 5810 R), setting the brake off Non-adherent cells that accumulated in the center of the Vbottom were quantified using a fluorescence reader with the filter sets allowing excitation at 485 nm and quantification of emission at 535 nm. The determination of the half maximal inhibitory concentration (IC50) of the compounds was calculated using the software GraphPad Prism 6.
Work on `C[C@]12C(=O)N(c3cc(Cl)cc(Cl)c3)C(=O)[C@H]1C2(c1ccc(OC(F)(F)F)cc1)c1ccc(OC(F)(F)F)cc1` (racemic) [4q (racemate), rac-(1S,5S)-3-(3,5-Dichlorophenyl)-1-methyl-6,6-bis[4-(trifluoromethoxy)phenyl]-3-azabicyclo[3.1.0]hexane-2,4-dione] yielded an IC50 of 101 nM.
In the case of `C[C@]12C(=O)N(c3cc(Cl)cc(Cl)c3)C(=O)[C@H]1[C@@]2(C(=O)N1CCOCC1)c1ccc(Br)cc1` (racemic) [4′k (racemate), rac-(1S,5R,6R)-6-(4-Bromophenyl)-3-(3,5-dichlorophenyl)-1-methyl-6-[(morpholin-4-yl)carbonyl]-3-azabicyclo[3.1.0]hexane-2,4-dione], the IC50 is reported as 3470 nM.
For `C[C@]12C(=O)N(c3cc(Cl)cc(Cl)c3)C(=O)[C@H]1[C@@]2(C(=O)N1CCOCC1)c1ccc(C(F)(F)F)cc1` (racemic) [4′l (racemate), rac-(1S,5R,6R)-3-(3,5-Dichlorophenyl)-1-methyl-6-[(morpholin-4-yl)carbonyl]-6-[4-(trifluoromethyl)phenyl]-3-azabicyclo[3.1.0]hexane-2,4-dione], the IC50 was > 3000 nM.
Compound `C[C@]12C(=O)N(c3cc(Cl)cc(Cl)c3)C(=O)[C@H]1[C@@]2(C(=O)N1CCOCC1)c1ccc(OC(F)(F)F)cc1` (racemic) [4′m (racemate), rac-(1S,5R,6R)-3-(3,5-Dichlorophenyl)-1-methyl-6-[(morpholin-4-yl)carbonyl]-6-[4-(trifluoromethoxy)phenyl]-3-azabicyclo[3.1.0]hexane-2,4-dione] has an IC50 of 405 nM.
`C[C@]12C(=O)N(c3cc(Cl)cc(Cl)c3)C(=O)[C@H]1[C@@]2(C(=O)N1CCOCC1)c1ccc(C#N)cc1` (racemic) [4′n (racemate), rac-4-[(1S,5R,6R)-3-(3,5-Dichlorophenyl)-1-methyl-6-[(morpholin-4-yl)carbonyl]-2,4-dioxo-3-azabicyclo[3.1.0]hexan-6-yl]benzonitrile] was tested, and the IC50 was 636 nM.
In the case of `CC12C(=O)N(c3cc(Cl)cc(Cl)c3)C(=O)C1C2(c1ccccc1)c1ccncc1` (single isomer, unassigned) [4 o or 4′o diastereomer I (racemate), rac-(1 S, 5S, 6S)- and rac-(1 S, 5S, 6R)-3-(3,5-Dichlorophenyl)-1-methyl-6-phenyl-6-(pyridin-4-yl)-3-azabicyclo[3.1.0]hexane-2,4-dione], the IC50 is reported as > 3000 nM.
For `CC12C(=O)N(c3cc(Cl)cc(Cl)c3)C(=O)C1C2(c1ccccc1)c1ccncc1` (single isomer, unassigned) [4 o or 4′o diastereomer II (racemate), rac-(1 S, 5S, 6S)- and rac-(1 S, 5S, 6R)-3-(3,5-Dichlorophenyl)-1-methyl-6-phenyl-6-(pyridin-4-yl)-3-azabicyclo[3.1.0]hexane-2,4-dione], the IC50 was 458 nM.
In the case of `CC12C(=O)N(c3cc(Cl)cc(Cl)c3)C(=O)C1C2(c1ccccc1)c1ccccc1` (single isomer, unassigned) [4b enantiomer B], the IC50 is reported as > 10000 nM.
`CC12C(=O)N(c3cc(Cl)cc(Cl)c3)C(=O)C1C2(c1ccc(C#N)cc1)c1ccc(OC(F)(F)F)cc1` (single isomer, unassigned) [4i/4′i diastereomer I (racemate), rac-4-[(1 S, 5S, 6S)- and rac-4-(1 S, 5S, 6R)-3-(3,5-Dichlorophenyl)-1-methyl-2,4-dioxo-6-[4-(trifluoro-methoxy)-phenyl]-3-azabicyclo[3.1.0]hexan-6-yl]benzonitrile] was tested, and the IC50 was 562 nM and 530 nM.
`N#Cc1ccc(C2(c3ccc(OC(F)(F)F)cc3)C3C(=O)N(c4cc(Cl)cc(Cl)c4)C(=O)C32)cc1` (single isomer, unassigned) [4r or 4′r diastereomer II] showed an IC50 of 132 nM.
Compound `N#Cc1ccc(C2(c3ccc(OC(F)(F)F)cc3)C3C(=O)N(c4cc(Cl)cc(Cl)c4)C(=O)C32)cc1` (single isomer, unassigned) [4r or 4′r diastereomer I] has an IC50 of 963 nM.
Compound `COc1ccc(C2(c3ccc(Cl)cc3)C3C(=O)N(c4cc(Cl)cc(Cl)c4)C(=O)C32C)cc1` (single isomer, unassigned) [4s or 4′s diastereomer I (racemate), rac-(1 S, 5S, 6R)- and rac-(1 S, 5S, 6S)-6-(4-Chlorophenyl)-3-(3,5-dichlorophenyl)-6-(4-methoxyphenyl)-1-methyl-3-azabicyclo[3.1.0]hexane-2,4-dione] has an IC50 of 1830 nM.
`COc1ccc(C2(c3ccc(Cl)cc3)C3C(=O)N(c4cc(Cl)cc(Cl)c4)C(=O)C32C)cc1` (single isomer, unassigned) [4s or 4′s diastereomer II (racemate), rac-(1 S, 5S, 6R)- and rac-(1 S, 5S, 6S)-6-(4-Chlorophenyl)-3-(3,5-dichlorophenyl)-6-(4-methoxyphenyl)-1-methyl-3-azabicyclo[3.1.0]hexane-2,4-dione] was tested, and the IC50 was 153 nM.
`CC12C(=O)N(c3cc(Cl)cc(Cl)c3)C(=O)C1C2(c1ccccc1)c1ccco1` (single isomer, unassigned) [4t or 4′t Diastereomer I (racemate), rac-(1 S, 5S, 6R)- and rac-(1 S, 5S, 6S)-3-(3,5-Dichlorophenyl)-6-(furan-2-yl)-1-methyl-6-phenyl-3-azabicyclo[3.1.0]hexane-2,4-dione] showed an IC50 of 870 nM.
`N#Cc1ccc(C2(c3ccncc3)C3C(=O)N(c4cc(Cl)cc(Cl)c4)C(=O)C32)cc1` (single isomer, unassigned) [4y or 4′y diastereomer I, rel-4-[(1 S, 5R, 6s)- and rel-4-[(1 S, 5R, 6r)-3-(3,5-Dichlorophenyl)-2,4-dioxo-6-(pyridin-4-yl)-3-azabicyclo[3.1.0]hexan-6-yl]benzonitrile] was tested, and the IC50 was > 1000 nM.
In the case of `N#Cc1ccc(C2(c3ccncc3)C3C(=O)N(c4cc(Cl)cc(Cl)c4)C(=O)C32)cc1` (single isomer, unassigned) [4y or 4′y diastereomer II, rel-4-[(1 S, 5R, 6s)- and rel-4-[(1 S, 5R, 6r)-3-(3,5-Dichlorophenyl)-2,4-dioxo-6-(pyridin-4-yl)-3-azabicyclo[3.1.0]hexan-6-yl]benzonitrile], the IC50 is reported as ≥ 1000 nM.
`CC12C(=O)N(c3cc(Cl)cc(Cl)c3)C(=O)C1C2(c1ccncc1)c1ccc(C#N)cc1` (single isomer, unassigned) [4z or 4′z diastereomer I (racemate)] was tested, and the IC50 was > 1000 nM.
`CC12C(=O)N(c3cc(Cl)cc(Cl)c3)C(=O)C1C2(c1ccncc1)c1ccc(C#N)cc1` (single isomer, unassigned) [4z or 4′z diastereomer II (racemate)] was tested, and the IC50 was 71 nM.
In the case of `O=C1[C@@H]2[C@H](C(=O)N1c1cc(Cl)cc(Cl)c1)[C@@H]2c1ccccc1` [4′c, rel-(1R,5S,6r)-3-(3,5-Dichlorophenyl)-6-phenyl-3-azabicyclo[3.1.0]hexane-2,4-dione], the IC50 is reported as 1590 nM.
In the case of `O=C1[C@@H]2[C@H](C(=O)N1c1cc(Cl)cc(Cl)c1)[C@@H]2c1ccc(Br)cc1` [4′e, rel-(1R,5S,6r)-6-(4-Bromophenyl)-3-(3,5-dichloro-phenyl)-3-azabicyclo[3.1.0]hexane-2,4-dione], the IC50 is reported as 3330 nM.
`O=C1[C@@H]2[C@H](C(=O)N1c1cc(Cl)cc(Cl)c1)C2(c1ccccc1)c1ccccc1` [Compound 4a, 3-(3,5-Dichlorophenyl)-6,6-diphenyl-3-azabicyclo[3.1.0]hexane-2,4-dione] showed an IC50 of 8480 nM.
